# Experiments:
# [1] = tested on: normal keratinocytes and EGFR over-expressing tumor cells; conditions: cited from earlier work
# [2] = tested on: hyper-phosphorylated retinoblastoma protein (ppRB); conditions: cited from earlier work
# p27^kip1/waf1 [3] = conditions: cited from earlier work
# [4] = tested on: normal human neonatal epidermal keratinoctyes, NHEK; test: Flow cytometric measurement of cell cycle arrest (BrdU incorporation / propidium iodide); format: cell-based; conditions: for % G1 / % G2 / % S: 24 hr, NHEK; for effect on cell cycle phase distribution (in words): keratinocytes treated for 24 hours
# Method: (§1) The protective effect of KGF on keratinocytes was measured in two types of assays, the first to determine its protective effect on cell cycle phase distribution against a small molecule EGFR inhibitor, and the second to determine its protective effect against ppRB depletion and p27^kip1/waf1 upregulation caused by the EGFR inhibitor. The effect of KGF on cell cycle phase distribution was measured by bivariate analysis of bromodeoxyuridine incorporation and propidium iodide uptake by […] using flow cytometry. The protective effect of KGF against ppRB depletion and p27^kip1/waf1 upregulation was measured by immunoblotting of lysates from treated and control […] cells with antibodies specific for RB and p27^kip1/waf1, respectively. The methods are described in detail below.
# (§2) All experiments were carried out with normal human neonatal epidermal keratinoctyes, NHEK (Clonetics, San Diego, Calif.). Cells were maintained in Keratinocyte Growth Medium, KGM-2 (Clonetics). Human recombinant KGF expressed in E. coli as a 19 kDa protein was purchased from Sigma Chemical Co. (St. Louis, Mo.).
# NHEK cells were seeded in 60-mm dishes in KGM-2. When the cells were semiconfluent, the medium was replaced with fresh medium containing the test agents: vehicle (0.125% DMSO); vehicle+20 ng/ml KGF; vehicle+0.3 μM CP-358, 774-01+/−20 ng/ml KGF; or vehicle+1 μM CP-358, 774-01+/−20 ng/ml KGF. The cells were incubated at 37° C. in a 5% CO2, humidified atmosphere. After 24 hr, bromodeoxyuridine (BrdU) was added to the medium at a final concentration of 10 μM for 30 min. The cells were then harvested using 0.25% trypsin/1 mM EDTA and counted using a Coulter counter. Aliquots of 2×10^6 cells were collected by centrifugation at 220×g for 5 min, washed in 2 ml phosphate buffered saline (PBS) containing 2.5% fetal calf serum, resuspended in 0.2 ml PBS, and fixed by the addition of 5 ml 70% ethanol at −20° C. After a 30 min incubation on ice, the cells were collected by centrifugation at 500×g for 5 min and resuspended in 25 μl PBS. One ml of 0.2 mg/ml pepsin in 2 N HCI was added and the cells were incubated for 30 min at rm temp. Cells were collected by centrifugation at 1500×g for 5 min and washed with 1 ml 0.1 M sodium borate, pH 8.5. Cells were pelleted at 1500×g for 5 min, resuspended in 1 ml of fluorescein isothiocyanate (FITC)-conjugated anti-BrdU (Becton Dickinson, San Jose, Calif.) diluted fifty-fold in PBS containing 0.5% Tween 20 and 1% bovine serum albumin, and incubated at ambient temperature in the dark for 30 min. After a final wash with PBS with 0.5% Tween 20 and 1% BSA, the cells were resuspended in PBS containing 10 μg/ml propidium iodide and 10 μg/ml RNase, filtered through a 35 µm mesh and analyzed on a FACSCalibur flow cytometer (Becton Dickinson) equipped with an argon laser with an emission wavelength of 488 nm. FITC fluorescence data was acquired at 515-545 nm, and propidium iodide fluorescence data was acquired at […]. A minimum of 20,000 cells was analyzed per sample. Data was analyzed using CellQuest software (Becton-Dickinson) and the percent of cells in each phase (G1, S, G2) of the cell cycle was calculated.
# [5] = tested on: hyperphosphorylated retinoblastoma protein (ppRB); test: Immunoblot of hyperphosphorylated RB (ppRB) in NHEK lysates; format: cell-based, human; conditions: 24 hr
# Method: as §1, §2
# (§3) NHEK cells were seeded in 6-well plates and grown until semi-confluent in KGM-2. […] Total protein concentration of the lysates was determined using the BCA protein assay (Pierce Chemicals, Rockford, Ill.). […]
# p27^kip1/waf1 [6] = test: Immunoblot of p27^kip1/waf1 protein level in NHEK lysates; format: cell-based, human; conditions: 24 hr
# Method: as §1, §2, §3
# FGFR1iiib receptor = conditions: cited from earlier work
molecule,measurement,setting,value
"C#Cc1cccc(Nc2ncnc3cc(OCCOC)c(OCCOC)cc23)c1 [CP-358,774, [6,7-bis(2-methoxy-ethoxy)-quinazolin-4-yl]-(3-ethynylphenyl)amine]",cell cycle arrest (accumulation of cells in G1 phase),[1],causes cell cycle arrest
same,effect on hyper-phosphorylated retinoblastoma protein (ppRB),[2],causes depletion
same,effect on cyclin-dependent kinase inhibitor p27^kip1/waf1,p27^kip1/waf1 [3],accumulation
C#Cc1cccc(Nc2ncnc3cc(OCCOC)c(OCCOC)cc23)c1.Cl [Compound A],% G1,[4]; 0.3 μM Compound A,75%
same,% G2,[4]; 0.3 μM Compound A,11%
same,% S,[4]; 0.3 μM Compound A,13%
same,% G1,[4]; 1 μM Compound A,85%
same,% G2,[4]; 1 μM Compound A,10%
same,% S,[4]; 1 μM Compound A,6.0%
same,effect on cell cycle phase distribution (in words),[4],concentration dependent accumulation of cells in the G1 phase of the cell cycle and a corresponding decrease in the S-phase fraction
same,ppRB signal on RB immunoblot,[5]; 0.3 μM Compound A,dramatically reduced
same,ppRB band on RB immunoblot,[5]; 1 μM Compound A,completely abolished
same,induction of p27^kip1/waf1 protein levels,p27^kip1/waf1 [6]; 0.3 μM Compound A,3.9 fold
same,induction of p27^kip1/waf1,p27^kip1/waf1 [6]; 1 μM Compound A,5.2 fold
"KGF: Human recombinant KGF expressed in E. coli as a 19 kDa protein, purchased from Sigma Chemical Co. (protein, UniProt P21781 32-194, looked up) Fibroblast growth factor 7: CNDMTPEQMATNVNCSSPERHTRSYDYMEGGDIRVRRLFCRTQWYLRIDKRGKVKGTQEMKNNYNIMEIRTVAVGIVAIKGVESEFYLAMNKEGKLYAKKECNEDCNFKELILENHYNTYASAKWTHNGGEMFVALNQKGIPVRGKKTKKEQKTAHFLPMAIT",% G1,[4]; 20 ng/ml KGF alone,52%
same,% G2,[4]; 20 ng/ml KGF alone,13%
same,% S,[4]; 20 ng/ml KGF alone,34%
same,effect on cell cycle phase distribution (in words),[4],no significant effect
"KGF-1: keratinocyte growth factor family member, also known as FGF-7 (protein, UniProt P21781 32-194, looked up) Fibroblast growth factor 7: CNDMTPEQMATNVNCSSPERHTRSYDYMEGGDIRVRRLFCRTQWYLRIDKRGKVKGTQEMKNNYNIMEIRTVAVGIVAIKGVESEFYLAMNKEGKLYAKKECNEDCNFKELILENHYNTYASAKWTHNGGEMFVALNQKGIPVRGKKTKKEQKTAHFLPMAIT",binding to FGFR1iiib receptor,FGFR1iiib receptor,high affinity
"KGF-2: keratinocyte growth factor family member, also known as FGF-10 (protein, UniProt O15520 38-208, looked up) Fibroblast growth factor 10: QALGQDMVSPEATNSSSSSFSSPSSAGRHVRSYNHLQGDVRWRKLFSFTKYFLKIEKNGKVSGTKKENCPYSILEITSVEIGVVAVKAINSNYYLAMNKKGKLYGSKEFNNDCKLKERIEENGYNTYASFNWQHNGRQMYVALNGKGAPRRGQKTRRKNTSAHFLPMVVHS",binding to FGFR1iiib receptor,FGFR1iiib receptor,high affinity

# — patent publication US7402557B2, “Combined treatment with keratinocyte growth factor and epidermal growth factor inhibitor” (priority 2000, dated 2008)
